From US5000966A, “Quality improvement of alcoholic liquors by enzymatic decomposing of ethyl carbamate” (Takeda Chemical Industries, Ltd., priority 1987, dated 1991) come the findings set out here.

For this assay, the system named is Candida krusoides ATCC 7345 enzyme capable of decomposing ethyl carbamate (partially purified crude enzyme of Example 5). In words: Km of the ethyl carbamate-decomposing enzyme (ammonia formation, nitroprusside method). It is filed as biochemical. The note with it: pH 4, 0.2M citrate buffer; substrate not given, taken as ethyl carbamate. Here is the method:
The activity of decomposing ethyl carbamate in the culture broth or its processed matter was determined colorimetrically by the nitroprusside method on ammonia produced by the reaction at 30° C. for 30 minutes of the mixture of a volume of a suspension of the cells in sterilized deionized water collected by centrifugation of the culture which had been diluted appropriately, […] The amount of enzyme to produce one micromole of ammonia per unit time (one minute) is expressed as 1 unit (1U). Candida krusoides ATCC 7345 was cultivated in the same manner as described in Example 1 to give 2 l of a culture broth having an activity of 0.007 U/ml for decomposing ethyl carbamate. The cells were collected from the culture broth by centrifugation, washed with 0.05M phosphate buffer (pH 7.2) twice, suspended in a solution containing 1 mM of EDTA and 1 mM of dithiothreitol, broken down by treating with a cell mill containing glass beads having 0.1-0.2 mm in diameter and were treated at 4500 rpm for 20 minutes The treated product was centrifuged and to the supernatant was added ammonium sulfate so that the concentration comes to 90%. […]

As a reminder, the Km is the substrate concentration at which the rate is half of its maximum. For `CCOC(N)=O` [ethyl carbamate], the Km is 65 mM.
